This is an account of results in patent US20230295201A1 (Gilead Sciences, Inc., priority 2020, published 2023).

The subject of data set [1] is RSV strain A2. Kind of data set: RSV HEp-2 EC50 (infectious cytopathic cell protection assay). In kind it is cell-based. The following applies: human respiratory syncytial virus, HEp-2, 96 h, read-out: RSV HEp-2 EC50. Summed up: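 Percent inhibition of RSV-induced cytopathic effect came from remaining cell viability (CellTiter-Glo luminescence) after 4 days at 37° C. Compounds in 3-fold serial dilutions were exposed to an infectious mix of titered A2 virus and HEp-2 cells at 50,000/ml, with 0% and 100% inhibition control standards.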
A general note: Damage to the host cells serves as the signal in cytopathic effect assays.

Data set [2] deals with RSV A2. Kind of data set: RSV NHBE EC50 (RSV A2 antiviral assay in normal human bronchial epithelial cells). The settings on record: human respiratory syncytial virus, NHBE, 96 h, read-out: RSV NHBE EC50. Format: cell-based.
The test system of data set [3] is HRV16. Kind of data set: HRV16 HELA EC50 (cytopathic effect in H1-HeLa cells). Format: cell-based. The following applies: 96 h, read-out: HRV16 HELA EC50. Summed up:
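Read-out is luminescent cell viability (CellTiter-Glo) after 96 h of infection at 33 °C, scaled between uninfected and infected-untreated wells. Before infection with titrated virus, compounds went onto H1-HeLa cells as triplicate 3-fold dilution series.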

For data set [4], the system named is DENV2 replicon. Kind of data set: DENV-2 Huh-7 Rep EC50 (replicon luminescence). In kind it is cell-based. The following applies: Dengue virus, DENV2, Huh-7, 48 h, read-out: DENV-2 Huh-7 Rep EC50. Summed up: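 EC50 derived from luminescence dose-response, normalised to DMSO-only 0% inhibition wells, after 1.5 h with EnduRen substrate. Compounds were first exposed for 48 h at 37° C to DENV2 replicon Huh-7 cells (5,000/well).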
(In general: A replicon is a self-replicating genome or part of one, used to study replication in cells.)

A short description of data set [5]: HEp-2 CC50 (cytotoxicity, Cell-Titer Glo). Format: cell-based. The settings on record: human; uninfected HEp-2 cells, 4-5 days. As to the method: The same protocol as for the determination of antiviral activity is used for the measurement of compound cytotoxicity except that the cells are not infected with RSV. Instead, an uninfected cell mixture at the same density is added at 20 ul/well to plates containing prediluted compounds, also at 100 nL/sample. Assay plates are then incubated for 4 days followed by a cell viability test using the same CellTiter Glo reagent addition and measurement of luminescent readouts.

Data set [6] is described as follows: in vitro. The settings on record: human.
Method: (§1) HEp-2 (1.5×10^3 cells/well) and MT-4 (2×10^3 cells/well) cells were plated in 384-well plates and incubated with the appropriate medium containing 3-fold serially diluted compound ranging from 15 nM to 100,000 nM. Cells were cultured for 4-5 days at 37° C. Following the incubation, the cells were allowed to equilibrate to 25° C., and cell viability was determined by adding Cell-Titer Glo viability reagent. The mixture was incubated for 10 min, and the luminescence signal was quantified using an Envision plate reader. Untreated cell and cells treated at 2 μM puromycin (Sigma, St. Louis, MO) serve as 100% and 0% cell viability control, respectively.
Data set [7] in a line: in vitro. The settings on record: human. This is another data set of the same source.
The nature of data set [8]: HELA CC50 (cytotoxicity). The following applies: human, HeLa cells.
Data set [9] is described as follows: MT4 CC50 (cytotoxicity, Cell-Titer Glo). The settings on record: human.
Method: as §1

pEC50: −log10 of the molar value. Where two headings read alike, the source gives them in different places.

What is called pEC50 is the EC50 on a negative log10 scale, so that one unit is a factor of ten.

For the molecule `CC(C)OC(=O)[C@H](C)N[P@](=O)(OC[C@@]1(C#N)O[C@@H](c2ccc3c(N)ncnn23)[C@H](OC(=O)C(C)C)[C@@H]1O)Oc1ccccc1` (single isomer, unassigned) [Example 240], the pEC50 in [1] (HEp-2 cells, RSV A2, 4 days) is 6.78; in data set [2] (NHBE cells, RSV A2, 4 days), 6.72; in data set [3] (H1-HeLa cells, 33° C.), 5.88; in data set [4] (Huh-7 replicon cells, 48 hours), 4.98. The CC50 in [5], in data set [6] and in data set [7] was above 50 µM throughout.
For the molecule `CC(C)OC(=O)[C@H](C)N[P@](=O)(OC[C@@]1(C#N)O[C@@H](c2ccc3c(N)ncnn23)[C@H](O)[C@@H]1OC(=O)C(C)(C)C)Oc1ccccc1` (single isomer, unassigned) [Example 239], the pEC50 in data set [1] (HEp-2 cells, RSV A2, 4 days) was 6.83; in [2] (NHBE cells, RSV A2, 4 days), 7.27; in [3] (H1-HeLa cells, 33° C.), 5.95; in data set [4] (Huh-7 replicon cells, 48 hours), 4.60. Besides, the CC50 in data set [5], in [6] and in data set [7] was above 50 µM each time.
With `CCOC(=O)c1ccccc1OP1(=O)OC[C@@]2(C#N)O[C@@H](c3ccc4c(N)ncnn34)[C@H](OC(=O)CC)[C@@H]2O1` (stereo partly drawn) [Example 230], the pEC50 in data set [1] is 5.78; in data set [2] it was below 5.30; in data set [3] it was 4.94; in data set [4], below 4.30. The CC50 in data set [5], in [8] and in [9] was above 50 µM in each case.
